Molecules are shown by their SMILES.

The target in the assay is Endoplasmin (Canis lupus familiaris, UniProt P41148). Put plainly: Fluorescence Polarization Assay: The assay was performed in 96-well black, flat-bottom plates with a final volume of 100 μL. 25 μL of assay buffer (20 mM HEPES, pH 7.3, 50 mM KCl, 5 mM MgCl2, 20 mM Na2MoO4, 2 mM DTT, 0.1 mg/mL BGG, and 0.01% NP-40) were added, followed by 25 μL of assay buffer containing 6 nM FITC-GDA (fluorescent tracer, stock in DMSO, diluted in assay buffer) and 50 μL of assay buffer containing 10 nM of either Grp94 or Hsp90α were added to each well. For each plate, wells containing buffer only (background), tracer in buffer only (low polarization control) and protein, tracer, and 1% DMSO (final concentration, high polarization control) were included. Compounds were then added with a final concentration of DMSO=1%. Plates were incubated at 4° C. with rocking for 24 h. […] Polarization values were correlated to % tracer bound and compound concentrations.
Sequence of Endoplasmin (P41148 whole entry): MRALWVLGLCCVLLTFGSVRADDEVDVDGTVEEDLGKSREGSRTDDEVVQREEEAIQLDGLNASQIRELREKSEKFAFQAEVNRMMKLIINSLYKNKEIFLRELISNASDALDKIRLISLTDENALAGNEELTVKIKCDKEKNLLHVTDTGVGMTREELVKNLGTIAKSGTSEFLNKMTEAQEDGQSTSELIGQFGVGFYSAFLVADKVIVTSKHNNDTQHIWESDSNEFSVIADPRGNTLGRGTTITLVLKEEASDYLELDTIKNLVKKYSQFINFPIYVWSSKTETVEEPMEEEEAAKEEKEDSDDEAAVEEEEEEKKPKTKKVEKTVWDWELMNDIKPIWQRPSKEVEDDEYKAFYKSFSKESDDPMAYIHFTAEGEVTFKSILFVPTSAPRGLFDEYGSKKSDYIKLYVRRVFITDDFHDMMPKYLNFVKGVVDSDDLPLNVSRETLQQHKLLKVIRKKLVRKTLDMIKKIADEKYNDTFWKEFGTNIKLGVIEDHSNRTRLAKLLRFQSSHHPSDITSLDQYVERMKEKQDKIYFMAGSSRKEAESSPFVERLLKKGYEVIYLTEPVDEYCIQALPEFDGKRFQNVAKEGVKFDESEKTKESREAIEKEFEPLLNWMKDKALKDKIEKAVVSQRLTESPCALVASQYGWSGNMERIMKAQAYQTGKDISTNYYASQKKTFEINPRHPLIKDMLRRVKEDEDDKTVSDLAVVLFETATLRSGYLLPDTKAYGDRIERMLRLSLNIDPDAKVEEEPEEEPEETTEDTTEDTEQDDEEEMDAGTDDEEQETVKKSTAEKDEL
The term Kd denotes a measure of binding affinity in units of concentration. Compound `COC(=O)c1c(O)cc(O)c(Cl)c1CCc1ccc(N)cc1Cc1ccccc1` registered a Kd of 240 nM. The figure for `COC(=O)c1c(O)cc(O)c(Cl)c1CCc1ccccc1Cc1ccccc1Cl` is 5500 nM.

With `COC(=O)c1c(O)cc(O)c(Cl)c1CCc1ccccc1Cc1ccccc1OC`, binding was put at a Kd of 7800 nM. Turning to `COC(=O)c1c(O)cc(O)c(Cl)c1CCc1ccc(O)cc1Cc1ccccc1`, the Kd came to 330 nM. This Kd lies about 24-fold lower than the previous one. The figure for `COC(=O)c1c(O)cc(O)c(Cl)c1CCc1ccc(OC)cc1Cc1ccccc1` is 680 nM; for `CCOc1ccccc1Cc1ccccc1CCc1c(Cl)c(O)cc(O)c1C(=O)OC` it is 6100 nM; for `COC(=O)c1c(O)cc(O)c(Cl)c1CCc1cc(OC)ccc1Cc1ccccc1` it is 450 nM. As for `COC(=O)c1c(O)cc(O)c(Cl)c1CCc1ccccc1Cc1cccc(Cl)c1`, the figure is 11900 nM. For the compound `COC(=O)c1c(O)cc(O)c(Cl)c1CCc1ccccc1Cc1ccc(Cl)cc1`, the affinity, expressed as Kd, was 4200 nM. This Kd is about 2.8-fold lower than that of the compound before. As for `COC(=O)c1c(O)cc(O)c(Cl)c1CCc1cccc(O)c1Cc1ccccc1`, the figure is 540 nM; as for `COC(=O)c1c(O)cc(O)c(Cl)c1CCc1cc(N)ccc1Cc1ccccc1`, 280 nM; as for `COC(=O)c1c(O)cc(O)c(Cl)c1CCc1cccc(Cc2ccccc2)c1`, 10400 nM. As for `COC(=O)c1c(O)cc(O)c(Cl)c1CCc1cccc(OC)c1Cc1ccccc1`, the figure is 730 nM.

These data come from ChEMBL document CHEMBL5728503, “Second generation GRP94-selective inhibitors” (2021).
